Reference: patent US9427433B2, “Methods and compositions for enhancing fertility and/or inhibiting pregnancy failure and restoring glucose tolerance” (Queen's University at Kingston, priority 2011, dated 2016)

Tests used:
[1] = system: NOD and NZO mice; assay: Implantation rate and embryonic/fetal resorption after tacrolimus; format: in vivo, mouse; details: short-term administration
Procedure: Fifty four NOD mice at the prediabetic and early diabetic stages were carefully selected to match the criteria of being 2 standard deviation heavier in body weight than their age-matched normoglycemic control mice and having blood glucose value of >14.9 mM/1 during the glucose tolerance test. The selected mice were 9 weeks old and were treated with 0.1 mg/kg q2d of tacrolimus (Prograf (5 mg/ml), Astellas) subcutaneously administered in 0.2 ml saline for three weeks after which animals were mated to males of the same strain (See FIG. 1). Vehicle (0.2 ml saline, s.q.) treated hyperglycemic NOD female mice were allowed two weeks in diabetes before they were mated to males of the same strain. […]
Twenty NZO and DIO/B6 female mice were maintained on a high fat diet consisted of 60% kcal fat, 20% kcal protein and 20% kcal carbohydrate, with a total energy mass of 5.24 kcal/gm (D12492, Research Diets Inc.; Cedarlane Laboratories, Burlington, Ontario, Canada) starting at 7 weeks of age and maintained on the diet for a total of 12 weeks of study period during which their weekly body weight changes and non-fasting blood glucose values were recorded. […]

[2] = rats, subcutaneous 0.1 mg/kg every other day (q2d); cited from earlier work
[3] = system: uteri of diabetic NOD mice; assay: Uterodome maturation (scanning electron microscopy) and uterine LIF Western blot; format: in vivo, mouse
Procedure: Using ice-cold sterile glass Dounce-tissue homogenizer, uterine samples collected from virgin and pregnant normoglycemic and diabetic NOD mice were homogenized in 3 volumes of the provided 1× homogenization buffer [Cytosolic and Nuclear Extraction Buffer Kit (Biovision Inc., CA, USA)] as per the manufacturer's instructions. Homogenized samples were centrifuged at 4° C. for 5 minutes at 16,000 g. Supernatants, referred to as cytosolic extracts, were immediately transferred into a clean pre-chilled tube kept on ice. Extraction of nuclear proteins from the remaining insoluble (pellet) fractions followed using ice-cold Nuclear Extraction Buffer Mix according to the supplier's instructions. Protein content of the extracted cytosolic and nuclear fractions was determined by Bradford assay. Extracted protein samples were aliquoted and stored at −80° C. for further analyses.
Mouse uterine cytosolic and nuclear proteins were resolved on 6 or 8% (w/v) Tris-SDS denaturing polyacrylamide gels in 1× sample loading buffer (150 mM sodium chloride, 1.0% Triton X-100 and 50 mM Tris, pH 8.0). Urea (8M) was added to the Tris-based SDS-PAGE for the detection of MUC1. […] Background-corrected intensities of Western blot protein bands on scanned films were processed using Image J. Data were expressed as means±SEM. GAPDH (detected as a band of approximately 37 kDa) was used as an internal loading control. […]

C=CC[C@@H]1/C=C(\C)C[C@H](C)C[C@H](OC)[C@H]2O[C@@](O)(C(=O)C(=O)N3CCCC[C@H]3C(=O)O[C@H](/C(C)=C/[C@@H]3CC[C@@H](O)[C@H](OC)C3)[C@H](C)[C@@H](O)CC1=O)[C@H](C)C[C@@H]2OC [tacrolimus]
rates of embryonic and fetal resorption [1]: reduced rates of embryonic and fetal resorption | implantation rate ([1]; pregnancy days 4.5 and 6.5): enhanced implantation rate | maximal blood concentration [2]: 0.6 nanograms/ml | uterine LIF protein expression (Western blot) ([3]; days 4.5 and 6.5 postcoitum): induced LIF protein expression | maturation of uterodomes at implantation sites ([3]; pregnancy day 4.5): inducing maturation of uterodomes
